From patent publication US5629298A, “Adenosine as a positive inotrop in the compromised heart” (University of Massachusetts Medical Center, priority 1995, dated 1997)
Read-outs that look alike come from different tables or passages of the source.

Columns and labels:
rat ventricular myocytes = experiment: Contractile function of individual ventricular myocytes (line scan camera edge detection, paced at 0.5 Hz); format: cell-based; conditions: for +dL/dtmax, maximal rate of shortening / -dL/dtmax, maximal rate of relaxation / DS, duration of shortening / LC, maximum length change (shortening) with contraction / TPS, time-to-peak shortening / TR, time to 75% relaxation: mean ± SE, N = 6; for inhibition at 2 µM: Rattus norvegicus, Ventricular myocyte, PIA at 2 μM
Procedure: Primary cultures of adult rat ventricular myocytes were prepared essentially according to previously described methods (Romano et al., Am. J. Physiol. 257:H1088 (1989)). Two male Sprague-Dawley rats (Charles River, Wilmington, Mass. or Harlan, Indianapolis, Ind.) were decapitated, and the hearts were rapidly excised and constant pressure (70 cm H2) and nonrecirculated) perfused for 10 minutes through the aortas with filtered (0.45 μm membrane filter) perfusing solution (NaCl, 118 mM; glucose, 10 mM; NaHCO3 25 mM; KCl, 4.69 mM; MgSO4 1.18 mM; and KH2 PO4, 1.18 mM; (pH 7.4)), to which […] was added, at 37° C. After equilibration, the hearts were constant pressure perfused with fresh physiological saline ("PS") containing no added Ca^2+ until spontaneous contractions ceased (i.e., ~30 seconds). The hearts were then perfused for 4-10 minutes in a nonrecirculating manner with PS containing 0.73 mg/ml collagenase, 0.16 mg/ml hyaluronidase, 1 mg/ml recrystallized bovine serum albumin ("BSA") and 48.4 μM Ca^2+ at a rate of 3-4 ml/min/heart. Ventricles, free of atria, were removed from the perfusion system, cut into 8 pieces and placed in a 50 ml Erlenmeyer flask with 5 ml of PS containing 0.73 mg/ml collagenase, 0.16 mg/ml hyaluronidase, 2.5 mg/ml BSA, and 50 μM Ca^2+ (incubation solution). The flask was gently shaken (40 cycles/min) in a reciprocating water bath with continuous gassing (95% O2, 5% CO2) for 7 minutes at 37° C. The incubation solution was aspirated and this shaking procedure was repeated with fresh incubation solution 3-5 times depending on the likelihood that the tissue was ready to dissociate. After the final incubation period, the solution was aspirated and replaced with 10 ml of fresh incubation solution. The flask was then shaken rapidly (120 cycles/min) for 10 minutes with gassing to dissociate the myocytes. The flask contents were filtered through a 250 μm nylon mesh into a 50 ml polypropylene centrifuge tube, to which 40 ml of PS containing 5.95 mg/ml BSA and 99.7 μm Ca^2+ (wash solution) was gradually added.
The myocytes were allowed to settle for 15 minutes, and the upper two thirds of the wash solution was aspirated. Upon the addition of 30-35 ml of wash solution, this settling step was repeated. The wash solution was aspirated and the myocyte pellet was resuspended in 10 ml of minimum essential medium ("MEM"). The myocyte suspension was allowed to settle for 5 minutes and then brought to a final volume of 22 ml with MEM. Two milliliters of the myocyte suspension was seeded onto each of 60 mm culture dishes containing 2 ml of MEM.
The contractile function of individual myocytes was assessed by dispersing 50-100 cells in a 506 μl myocyte chamber (11×23×2 mm deep). The chamber (FIG. 1) was continuously suffused (850 μl/min) with fresh suffusion solution ("SS") in mM: 136.4 NaCl, 4.7 KCl, 1.0 CaCl2, 10 hydroxyethylpiperzine-ethanesulfonicacid (HEPES), 1.0 NaHCO3, 1.2 MgSO4, 1.2 KH2 PO4, 10 glucose, 0.6 ascorbate, 1.0 pyruvate) at 20° C. The chamber was mounted on an inverted microscope stage and contained platinum wire electrodes for initiating myocyte contraction at 0.5 Hz (voltage 10% above threshold for 5 msec duration).
The image of the myocyte was projected via an inverted microscope at 300× onto a line scan camera (Fairchild, Model 1600R) containing a linear array (1×3456) of photodiodes. When aligned with the longitudinal axis of the cell the camera detected the movement of the 2 ends of the myocyte upon contraction (shortening and relengthening). […] When the myocyte was transilluminated, both ends of the cell were easily discriminated. Myocyte length and length change with respect to time for a single contraction was measured by determining the pixels in which the appropriate transitions between light and dark occurred. The line scan camera was calibrated with a stage micrometer scaled in 10 μm divisions. The signals from the camera were directed to a Hewlett Packard computer (Model Vectra RS/20C). […]

[1] = system: ventricular myocyte membrane adenylyl cyclase; experiment: Adenylyl cyclase activity of ventricular myocyte membranes; format: biochemical, rat
Procedure: After a 3-4 hour incubation period, myocytes were harvested by placing the culture dishes on ice; aspirating and discarding the culture medium; scraping the attached cells into 1 ml of ice cold buffer (pH 7.4) containing 10 mM HEPES and 1 mM dithiothreitol (DTT); and transferring the mixture to a 40 ml centrifuge tube. The culture dishes were rinsed twice with buffer, and the rinses were added to the centrifuge tube. The myocytes were centrifuged at 45,000 x g for 45 minutes and the supernatant was discarded. The pellet was resuspended in 40 mM HEPES (pH 7.4) to yield 3.5-4 mg protein/ml and homogenized with a small clearance Dounce tissue grinder (8 strokes). The membranes were centrifugated as described above, resuspended (3-4 mg protein/ml) in 40 mM HEPES (pH 7.4), and assayed for adenylyl cyclase activity immediately or stored at -80° C. and assayed within 10 days.
The assay system used to measure adenylyl cyclase activity minimizes the formation of endogenous adenosine. The assay used was essentially as described by Romano et al. (supra). Myocyte membranes (15-25 μg protein) were incubated in 50 μl of a buffer containing 40 mM HEPES (pH 7.4), 5 mM MgCl2, 1 mM DTT, 5.5 mM KCl, 0.1 mM 2'-deoxy-cAMP (dcAMP), 0.1 mM 2'-deoxy ATP (dATP), 20 mM phosphoenolpyruvate, 2 units pyruvate kinase, 0.25 units adenosine deaminase, 1 mM ascorbic acid, 100 mM NaCl, 0.1 mM ethyleneglycol-bis (β-aminoethylether) N,N,N',N',-tetroaceticacid (EGTA), 10 μM guanosine 5'-triphosphate (GTP), and ~2×10^6 counts/minutes of [α-^32 P]dATP for 20 minutes at 30° C. The reaction was stopped by adding 40 μl of a solution containing 2% sodium dodecyl sulfate (SDS), 45 mM ATP, 1.3 mM cAMP, and [^3 H]dcAMP (~4000 count/min) and by boiling for 2 minutes.

rat heart = experiment: Isolated perfused heart, normoperfused or hypoperfused (mechanically depressed): LVP, +dP/dtmax, -dP/dtmax; conditions: atenolol; hypoperfusion
Procedure: Male Sprague-Dawley rats (500-550 g) were anesthetized with pentobarbital (40 mg/kg, i.p.) and treated with heparin (500 units, i.p.) for 15 minutes. Hearts were excised, rinsed in iced physiological saline ("PS") and perfused with PS (37° C.) via an aortic cannula at a constant rate of 18-20 ml/min. Perfusion pressure ranged from 50 to 60 mm Hg. The PS contained: NaCl, 118 mM; KCl, 4.7 mM; CaCl2, 2.5 mM; NaHCO3, 25 mM; KH2 PO4, 1.2 mM; MgSO4 1.2 mM; glucose 10 mM; and pyruvate 1.8 mM. The pH was maintained at 7.4 by gassing the PS with a 95% O2 /5% CO2 gas mixture. Platinum wire electrodes were inserted into the right atrium to allow pacing of the heart (300 contractions per minute) throughout the perfusion period. Developed left ventricular pressure (LVP) was measured with a saline-filled balloon inserted into the lumen of the left ventricle via the left atrium and attached by a polyethylene cannula to a pressure transducer. The pressure signal was electronically differentiated to obtain the maximum rates of left ventricular pressure development (+dP/dtmax) and relaxation (-dP/dtmax). Balloon volume was varied until the maximal obtainable dP/dt was attained. This optimal preload, ranging from 5 to 10 mm Hg, was maintained constant, permitting isovolumic contraction of the heart. Aortic perfusion pressure was monitored with another pressure transducer. All the LVP, +dP/dtmax, -dP/dtmax and aortic perfusion data were continually recorded on a multichannel polygraph. At the end of the experiment, the wet heart weights were determined; they ranged from 1.4 to 1.8 g.
After instrumentation, the hearts were normoperfused at 18-20 ml/min for 20 minutes, resulting in an aortic perfusion pressure of 50-60 mm Hg. Isoproterenol, adenosine, CGS-21680, DPCPX, atenolol, or a combination of these agents was administered for 1 to 2 minutes, via the aortic perfusion cannula, at 1/100th the perfusion flow rate, to achieve the stated PS concentrations. Isoproterenol was administered for only 5 seconds. To cause mechanical depression of the perfused hearts, the perfusion flow was lowered 5-6 ml/min. The resulting aortic perfusion pressure decreased to 20-30 mm Hg. The various agents either alone or in combination were administered via the PS to the hypoperfused hearts at 1/100th the perfusion flow rate, at the concentrations indicated.

[2] = Table 5, CGS-21680 and/or CGS-15943 at 10^-5 M, 10 min
[3] = Table 6, 10^-5 M SHA-082, 10^-5 M NECA, 10^-4 M adenosine, 2 × 10^-7 M DPCPX, 10^-5 M CGS-15943
[4] = addition of 0.1 μM DPCPX to 1 μM PIA + 0.1 μM ISO
[5] = Table 3, 1 μM PIA, 0.1 μM ISO, 0.1 μM DPCPX added sequentially every 8-10 min, maximum responses

Compound: N=c1[nH]c2ccc(Cl)cc2c2nc(-c3ccco3)nn12 [CGS-15943, 9-chloro-2-(2-furanyl)-5,6-dihydro-1,2,4-triazolo-(1,5-C)quinazolin-5-imine]
- effect on the adenosine induced increases in contractile variables (rat ventricular myocytes; 10 μM CGS-15943, 100 μM adenosine + 0.2 μM DPCPX): inhibited
- effect on the increase in myocyte contractility produced by CGS-21680 (rat ventricular myocytes; CGS-15943 (10 μm), CGS-21680 (10 μm)): prevented
- +dL/dtmax, maximal rate of shortening (rat ventricular myocytes; [2]): 146 ± 10 μm/msec
- -dL/dtmax, maximal rate of relaxation (rat ventricular myocytes; [2]): 123 ± 11 μm/msec
- DS, duration of shortening (rat ventricular myocytes; [2]): 331 ± 15 ms
- LC, maximum length change (shortening) with contraction (rat ventricular myocytes; [2]): 18 ± 2 μm
- TPS, time-to-peak shortening (rat ventricular myocytes; [2]): 122 ± 3 ms
- TR, time to 75% relaxation (rat ventricular myocytes; [2]): 285 ± 10 ms
- effect on the CGS-21680 increase in cyclase activity ([1]; 10 μM CGS-15943, 0.1 μM DPCPX present): prevented
- effect on the NECA increase in membrane cyclase activity ([1]; CGS-15943 at 10 μM, both in the absence and presence of DPCPX): prevented

Compound: Cn1c(=O)c2c(nc(C=Cc3cccc(Cl)c3)n2C)n(C)c1=O [CSC, 8-(3-chlorostyryl)caffeine]
- effect on the increase in the contractile variables elicited by 1 μM CGS-21680 (rat ventricular myocytes; CSC at 1 μM, in the presence of 0.2 μM DPCPX): prevented

Compound: CCCn1c(=O)c2[nH]c(C3CCCC3)nc2n(CCC)c1=O [DPCPX, 1,3-dipropyl-8-cyclopentylxanthine]
- effect on myocyte contractility when administered alone (rat ventricular myocytes; 100 μM adenosine or 0.2 μM DPCPX): without effect
- effect on the PIA reduction of the ISO induced contractile responses (rat ventricular myocytes; DPCPX at 0.2 μM, ISO 0.2 μM, PIA 2 μM): reversed
- +dL/dtmax, maximal rate of shortening (rat ventricular myocytes; [3]): 179 ± 9 μm/msec
- -dL/dtmax, maximal rate of relaxation (rat ventricular myocytes; [3]): 147 ± 11 μm/msec
- DS, duration of shortening (rat ventricular myocytes; [3]): 279 ± 15 ms
- LC, maximum length change (shortening) with contraction (rat ventricular myocytes; [3]): 17 ± 1 μm
- TPS, time-to-peak shortening (rat ventricular myocytes; [3]): 116 ± 3 ms
- TR, time to 75% relaxation (rat ventricular myocytes; [3]): 264 ± 11 ms
- further increase of the ISO induced enhancement in +dL/dtmax (rat ventricular myocytes; [4]): 40%
- further increase of the ISO induced enhancement in LC (rat ventricular myocytes; [4]): 26%
- lowering of DS below that observed in the presence of PIA+ISO (rat ventricular myocytes; [4]): 27%
- effect on the PIA inhibition of ISO stimulated adenylyl cyclase activity ([1]; DPCPX at 0.1 μM): prevented

Compound: CC(Cc1ccccc1)Nc1ncnc2c1ncn2[C@@H]1O[C@H](CO)[C@@H](O)[C@H]1O (some centres unmarked) [PIA, phenylisopropyladenosine]
- effect on ventricular myocyte contractile variables (rat ventricular myocytes; PIA at 1 μM alone): no effect
- inhibition at 2 µM (rat ventricular myocytes; ISO 0.2 μM, read-out: reduction of the ISO-induced decrease in DS): 47%
- inhibition at 2 µM (rat ventricular myocytes; ISO 0.2 μM, read-out: reduction of the ISO-induced decrease in TPS): 82%
- inhibition at 2 µM (rat ventricular myocytes; ISO 0.2 μM, read-out: reduction of the ISO-induced decrease in TR): 37%
- inhibition at 2 µM (rat ventricular myocytes; ISO 0.2 μM, read-out: reduction of the ISO-induced increase in +dL/dtmax): 60%
- inhibition at 2 µM (rat ventricular myocytes; ISO 0.2 μM, read-out: reduction of the ISO-induced increase in -dL/dtmax): 78%
- inhibition at 2 µM (rat ventricular myocytes; ISO 0.2 μM, read-out: reduction of the ISO-induced increase in LC): 91%
- +dL/dtmax, maximal rate of shortening (rat ventricular myocytes; [5]): 115 ± 17 μm/msec
- -dL/dtmax, maximal rate of relaxation (rat ventricular myocytes; [5]): 85 ± 21 μm/msec
- DS, duration of shortening (rat ventricular myocytes; [5]): 374 ± 23 ms
- LC, maximum length change (shortening) with contraction (rat ventricular myocytes; [5]): 16 ± 2 μm
- TPS, time-to-peak shortening (rat ventricular myocytes; [5]): 153 ± 5 ms
- TR, time to 75% relaxation (rat ventricular myocytes; [5]): 308 ± 8 ms

Compound: CC(C)NCC(O)COc1ccc(CC(N)=O)cc1 (centres unmarked) [atenolol]
- effect on the inotropic responses induced by adenosine or adenosine plus DPCPX (rat heart): did not affect
- effect on the isoproterenol elicited contractile responses (rat heart): completely prevented
